Reference: ChEMBL document CHEMBL1151048, “Synthesis and antimicrobial activity of 5-thioabbeymycin: limitations of the iminothioether approach to carbinolamine-containing pyrrolobenzodiazepines” (1993)

Tests used:
Type in all cases: functional
Pseudomonas aeruginosa [1] = test: Minimum inhibitory concentration against Pseudomonas aeruginosa; value ranges from 2-4 ug cm-3
Pseudomonas aeruginosa [2] = test: Minimum bactericidal concentration against Pseudomonas aeruginosa; value ranges from 2-4 ug cm-3
Staphylococcus aureus [3] = test: Minimum bactericidal concentration against Staphylococcus aureus; value ranges from 2-8 ug cm-3
Staphylococcus aureus [4] = test: Minimum inhibitory concentration against Staphylococcus aureus; value ranges from 2-4 ug cm-3

O[C@H]1C[C@H]2C=Nc3ccccc3C(=S)N2C1
2 ug cm**-3: MIC (Pseudomonas aeruginosa [1]) | MBC (Pseudomonas aeruginosa [2]) | MBC (Staphylococcus aureus [3]) | MIC (Staphylococcus aureus [4])
